In the supplement of paper PMC9265050, “Inhibition of RNA Binding in SND1 Increases the Levels of miR-1-3p and Sensitizes Cancer Cells to Navitoclax” (Cancers, 2022):

Test system: SW480
Assay: drug sensitivity score (DSS, integrated dose-response area); higher = more sensitive (stronger viability reduction); extreme values may be limits of the assay
Method in brief: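 The drug sensitivity score is the integrated area under a fitted non-linear dose–response model. It was derived from SW480 cells with doxycycline-inducible control or SND1-targeting shRNA, induced with 0.1 µg/mL doxycycline for 7 days and plated at 1000 cells per well on 384-well plates of 525 commercially available small-molecule inhibitors at five concentrations. CellTiter-Glo measured viability after 72 h.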

[1] = shRNA: SND1 shRNA1 (SND1 silenced)
[2] = shRNA: SND1 shRNA2 (SND1 silenced)
[3] = shRNA: control shRNA (non-targeting)

What does the source list for `CC(C)C[C@H](NC(=O)[C@@H](COC(C)(C)C)NC(=O)[C@H](Cc1ccc(O)cc1)NC(=O)[C@H](CO)NC(=O)[C@H](Cc1c[nH]c2ccccc12)NC(=O)[C@H](Cc1cnc[nH]1)NC(=O)[C@@H]1CCC(=O)N1)C(=O)N[C@@H](CCCNC(=N)N)C(=O)N1CCC[C@H]1C(=O)NNC(N)=O` [Goserelin]?
drug sensitivity score [1]: 0 DSS; drug sensitivity score [2]: 0 DSS; drug sensitivity score [3]: 0 DSS

For `O=S(=O)(c1cccc2c(O)nccc12)N1CCCNCC1` [Hydroxyfasudil], which drug sensitivity score [1] is on record?
Its drug sensitivity score is 1.6 DSS.

And the drug sensitivity score [3]?
Its drug sensitivity score is 3.5 DSS.

What does the source list for `NC(=O)NO` [Hydroxyurea]?
drug sensitivity score [1]: 0 DSS; drug sensitivity score [2]: 0 DSS; drug sensitivity score [3]: 0.2 DSS

Which results are given for `COc1cc2c(cc1-c1c(C)noc1C)ncc1[nH]c(=O)n([C@H](C)c3ccccn3)c12` [I-BET151]?
drug sensitivity score [1]: 1.4 DSS; drug sensitivity score [2]: 0.5 DSS; drug sensitivity score [3]: 2.4 DSS

How did the drug sensitivity score [1] turn out when `O=C(O)c1ccc(O)c2ncccc12` [IOX-1] was run?
Its drug sensitivity score is 1.7 DSS.

And the drug sensitivity score [2]?
Its drug sensitivity score is 1.1 DSS.

What about the drug sensitivity score [3] of the same compound?
Its drug sensitivity score is 0.7 DSS.

What does the source list for `O=C(O)CNC(=O)c1c(O)c2ccccc2n(Cc2ccccc2)c1=O` [IOX-2]?
drug sensitivity score [1]: 5 DSS; drug sensitivity score [2]: 2.3 DSS; drug sensitivity score [3]: 6.2 DSS

Which results are given for `C=CC(=O)N1CCC[C@@H](n2nc(-c3ccc(Oc4ccccc4)cc3)c3c(N)ncnc32)C1` [Ibrutinib]?
drug sensitivity score [1]: 0 DSS; drug sensitivity score [2]: 0.6 DSS; drug sensitivity score [3]: 0 DSS

`C#Cc1cccc(Nc2ncnc3cc4c(cc23)OCCOCCOCCO4)c1` [Icotinib] was tested. Which drug sensitivity score [1] did it give?
The drug sensitivity score was 1.1 DSS.

And the drug sensitivity score [2]?
Its drug sensitivity score is 3.8 DSS.

And the drug sensitivity score [3]?
The drug sensitivity score was 1.1 DSS.

For `CC(=O)[C@]1(O)Cc2c(O)c3c(c(O)c2[C@@H](O[C@H]2C[C@H](N)[C@H](O)[C@H](C)O2)C1)C(=O)c1ccccc1C3=O` [Idarubicin], which drug sensitivity score [1] is on record?
Its drug sensitivity score is 11.6 DSS.

What about the drug sensitivity score [2] of the same compound?
The drug sensitivity score was 9 DSS.

And the drug sensitivity score [3]?
Its drug sensitivity score is 9.4 DSS.

Which results are given for `COc1cc(C(=O)O)ccc1NC(=O)[C@@H]1N[C@@H](CC(C)(C)C)[C@](C#N)(c2ccc(Cl)cc2F)[C@H]1c1cccc(Cl)c1F` [Idasanutlin]?
drug sensitivity score [1]: 0 DSS; drug sensitivity score [2]: 0.3 DSS; drug sensitivity score [3]: 0.9 DSS

Which drug sensitivity score [1] does the source give for `CC[C@H](Nc1ncnc2[nH]cnc12)c1nc2cccc(F)c2c(=O)n1-c1ccccc1` [Idelalisib] here?
The drug sensitivity score was 2.3 DSS.

And the drug sensitivity score [2]?
The drug sensitivity score was 4.6 DSS.

And the drug sensitivity score [3]?
The drug sensitivity score was 0.7 DSS.

Which results are given for `O=P1(NCCCl)OCCCN1CCCl` (stereo not given) [Ifosfamide]?
drug sensitivity score [1]: 0 DSS; drug sensitivity score [2]: 0 DSS; drug sensitivity score [3]: 0 DSS

Which drug sensitivity score [1] does the source give for `Cc1ccc(NC(=O)c2ccc(CN3CCN(C)CC3)cc2)cc1Nc1nccc(-c2cccnc2)n1` [Imatinib] here?
The drug sensitivity score was 0.7 DSS.

What about the drug sensitivity score [2] of the same compound?
Its drug sensitivity score is 1.4 DSS.

And the drug sensitivity score [3]?
The drug sensitivity score was 2.5 DSS.

What does the source list for `CC(C)Cn1cnc2c(N)nc3ccccc3c21` [Imiquimod]?
drug sensitivity score [1]: 0.9 DSS; drug sensitivity score [2]: 0.1 DSS; drug sensitivity score [3]: 3.5 DSS

Which drug sensitivity score [1] does the source give for `O=C(Nc1ccncc1)C(=O)c1cn(Cc2ccc(Cl)cc2)c2ccccc12` [Indibulin] here?
Its drug sensitivity score is 8.8 DSS.

What about the drug sensitivity score [2] of the same compound?
The drug sensitivity score was 7.7 DSS.

And the drug sensitivity score [3]?
Its drug sensitivity score is 8.8 DSS.

Which drug sensitivity score [1] does the source give for `NC(=O)c1ccc(I)c([N+](=O)[O-])c1` [Iniparib] here?
Its drug sensitivity score is 0.4 DSS.

What about the drug sensitivity score [2] of the same compound?
Its drug sensitivity score is 0.1 DSS.

What about the drug sensitivity score [3] of the same compound?
The drug sensitivity score was 0 DSS.

Which results are given for `CC(C)NC[C@@H](C(=O)N1CCN(c2ncnc3c2[C@H](C)C[C@H]3O)CC1)c1ccc(Cl)cc1` [Ipatasertib]?
drug sensitivity score [1]: 3.5 DSS; drug sensitivity score [2]: 9.7 DSS; drug sensitivity score [3]: 5.9 DSS

Which drug sensitivity score [1] does the source give for `CCc1c2c(nc3ccc(OC(=O)N4CCC(N5CCCCC5)CC4)cc13)-c1cc3c(c(=O)n1C2)COC(=O)[C@]3(O)CC` [Irinotecan] here?
Its drug sensitivity score is 3.2 DSS.

And the drug sensitivity score [2]?
The drug sensitivity score was 1.6 DSS.

What about the drug sensitivity score [3] of the same compound?
Its drug sensitivity score is 5.5 DSS.

What does the source list for `CCC(C)n1ncn(-c2ccc(N3CCN(c4ccc(OCC5COC(Cn6cncn6)(c6ccc(Cl)cc6Cl)O5)cc4)CC3)cc2)c1=O` (stereo not given) [Itraconazole]?
drug sensitivity score [1]: 4.2 DSS; drug sensitivity score [2]: 0.2 DSS; drug sensitivity score [3]: 1.5 DSS

Which results are given for `C/C(=C\c1csc(C)n1)[C@@H]1C[C@@H]2O[C@]2(C)CCC[C@H](C)[C@H](O)[C@@H](C)C(=O)C(C)(C)[C@@H](O)CC(=O)N1` [Ixabepilone]?
drug sensitivity score [1]: 3 DSS; drug sensitivity score [2]: 2.7 DSS; drug sensitivity score [3]: 2.5 DSS

What does the source list for `CCCNC(=O)Nc1ccc(Oc2ncnc3cc(OC)c(OC)cc23)cc1Cl` [KRN-633]?
drug sensitivity score [1]: 0 DSS; drug sensitivity score [2]: 0.4 DSS; drug sensitivity score [3]: 0.6 DSS

Which drug sensitivity score [1] does the source give for `O=C(c1ccc(/C=C/c2n[nH]c3ccccc23)cc1)N1CCNCC1` [KW-2449] here?
The drug sensitivity score was 0.7 DSS.

And the drug sensitivity score [2]?
Its drug sensitivity score is 0 DSS.

What about the drug sensitivity score [3] of the same compound?
Its drug sensitivity score is 0.2 DSS.

`O=C(Cc1ccc(-c2ccc(OCCN3CCOCC3)cc2)cn1)NCc1ccccc1` [KX2-391] was tested. Which drug sensitivity score [1] did it give?
Its drug sensitivity score is 15 DSS.

And the drug sensitivity score [2]?
The drug sensitivity score was 17.4 DSS.

And the drug sensitivity score [3]?
Its drug sensitivity score is 18.9 DSS.

Which drug sensitivity score [1] does the source give for `CN[C@@H](C)C(=O)N[C@H](C(=O)N1CCC[C@H]1c1nc(C(=O)c2ccc(F)cc2)cs1)C1CCCCC1` [LCL161] here?
Its drug sensitivity score is 0.2 DSS.

What about the drug sensitivity score [2] of the same compound?
Its drug sensitivity score is 0 DSS.

And the drug sensitivity score [3]?
Its drug sensitivity score is 0.5 DSS.

Which results are given for `CS(=O)(=O)CCNCc1ccc(-c2ccc3ncnc(Nc4ccc(OCc5cccc(F)c5)c(Cl)c4)c3c2)o1` [Lapatinib]?
drug sensitivity score [1]: 0 DSS; drug sensitivity score [2]: 0 DSS; drug sensitivity score [3]: 0.9 DSS

`Oc1ccc2c(c1)CC[C@H](c1ccccc1)[C@@H]2c1ccc(OCCN2CCCC2)cc1` [Lasofoxifene] was tested. Which drug sensitivity score [1] did it give?
The drug sensitivity score was 0.8 DSS.

What about the drug sensitivity score [2] of the same compound?
The drug sensitivity score was 0.7 DSS.

What about the drug sensitivity score [3] of the same compound?
The drug sensitivity score was 2 DSS.

With `Nc1cccc2c1CN(C1CCC(=O)NC1=O)C2=O` (stereo not given) [Lenalidomide] as the compound, how does the drug sensitivity score [1] read?
Its drug sensitivity score is 0 DSS.

What about the drug sensitivity score [2] of the same compound?
The drug sensitivity score was 0.1 DSS.

And the drug sensitivity score [3]?
The drug sensitivity score was 2.3 DSS.

`COc1cc2nccc(Oc3ccc(NC(=O)NC4CC4)c(Cl)c3)c2cc1C(N)=O` [Lenvatinib] was tested. Which drug sensitivity score [1] did it give?
Its drug sensitivity score is 1.8 DSS.

What about the drug sensitivity score [2] of the same compound?
The drug sensitivity score was 1.3 DSS.

And the drug sensitivity score [3]?
The drug sensitivity score was 2.1 DSS.

With `C[C@]12O[C@H](C[C@]1(O)CO)n1c3ccccc3c3c4c(c5c6ccccc6n2c5c31)CNC4=O` [Lestaurtinib] as the compound, how does the drug sensitivity score [1] read?
Its drug sensitivity score is 6.8 DSS.

What about the drug sensitivity score [2] of the same compound?
The drug sensitivity score was 7.1 DSS.

And the drug sensitivity score [3]?
The drug sensitivity score was 8.3 DSS.

With `N#Cc1ccc(C(c2ccc(C#N)cc2)n2cncn2)cc1` [Letrozole] as the compound, how does the drug sensitivity score [1] read?
The drug sensitivity score was 0 DSS.

What about the drug sensitivity score [2] of the same compound?
The drug sensitivity score was 0 DSS.

And the drug sensitivity score [3]?
Its drug sensitivity score is 0.1 DSS.

Which drug sensitivity score [1] does the source give for `c1ccc([C@H]2CN3CCSC3=N2)cc1` [Levamisole] here?
The drug sensitivity score was 0 DSS.

And the drug sensitivity score [2]?
The drug sensitivity score was 0 DSS.

What about the drug sensitivity score [3] of the same compound?
The drug sensitivity score was 0 DSS.

For `Cc1ccc(F)c(NC(=O)Nc2ccc(-c3cccc4[nH]nc(N)c34)cc2)c1` [Linifanib], which drug sensitivity score [1] is on record?
The drug sensitivity score was 0 DSS.

What about the drug sensitivity score [2] of the same compound?
The drug sensitivity score was 0 DSS.

What about the drug sensitivity score [3] of the same compound?
The drug sensitivity score was 0 DSS.

How did the drug sensitivity score [1] turn out when `C[C@]1(O)C[C@@H](c2nc(-c3ccc4ccc(-c5ccccc5)nc4c3)c3c(N)nccn32)C1` [Linsitinib] was run?
Its drug sensitivity score is 0 DSS.

What about the drug sensitivity score [2] of the same compound?
The drug sensitivity score was 0.1 DSS.

What about the drug sensitivity score [3] of the same compound?
Its drug sensitivity score is 0.2 DSS.

How did the drug sensitivity score [1] turn out when `Nc1nc(OCc2cc(Br)cs2)c2[nH]cnc2n1` [Lomeguatrib] was run?
The drug sensitivity score was 0 DSS.

And the drug sensitivity score [2]?
Its drug sensitivity score is 1.9 DSS.

What about the drug sensitivity score [3] of the same compound?
Its drug sensitivity score is 0.5 DSS.

Which drug sensitivity score [1] does the source give for `O=NN(CCCl)C(=O)NC1CCCCC1` [Lomustine] here?
Its drug sensitivity score is 0 DSS.

And the drug sensitivity score [2]?
The drug sensitivity score was 0 DSS.

What about the drug sensitivity score [3] of the same compound?
Its drug sensitivity score is 0 DSS.

What does the source list for `NC(=O)N1CCC(CC(=O)N2CCC([C@H]3c4ncc(Br)cc4CCc4cc(Cl)cc(Br)c43)CC2)CC1` [Lonafarnib]?
drug sensitivity score [1]: 6.9 DSS; drug sensitivity score [2]: 8.8 DSS; drug sensitivity score [3]: 4.9 DSS

What does the source list for `Cc1c(F)cc(C(=O)NC2CC2)cc1-c1ccc(C(=O)NCC(C)(C)C)cn1` [Losmapimod]?
drug sensitivity score [1]: 0 DSS; drug sensitivity score [2]: 0 DSS; drug sensitivity score [3]: 0 DSS
